# According to PubChem BioAssay AID1918991 (Molecular Pharmacology Branch, DTP, NCI, 2023):
# System: 186277-243-T-J2-PDC complex spheroid growth
# Assay: Anticancer human tumor 186277-243-T-J2-PDC patient-derived colon adenocarcinoma cell line growth inhibition [AhR]
# Conditions: for IC50: curve of first compound; for viability, T/C: stronger effect = lower value
# From the text: Multicellular complex tumor spheroid response to aryl hydrocarbon receptor antagonists in combination with a variety of drugs and investigational agents in selected tumor cell lines
# The current study was undertaken to assess response to aryl hydrocarbon receptor antagonists in combination with standard-of-care drugs and investigational agents in solid tumor complex spheroid models. Complex spheroids include a stromal component modeled by human endothelial cells (HUVEC) and fibroblasts modeled by human mesenchymal stem cells (MSCs). The concentration ranges selected for each drug and investigational agent were based upon clinically achievable concentrations if the clinical Cmax of the agent was known.
# Compounds. The drugs and investigational agents: BAY 2416964 (NSC825713), GNF351 (NSC835774), CH-223191 (NSC835775), CPI-455 (NSC825282), aza-TdCyd (NSC777586), decitabine (NSC127716), belinostat (NSC758774), entinostat (NSC756642), pevonedistat (NSC761192), tazemetostat (NSC777109), talazoparib (NSC765396), olaparib (NSC753686), selinexor (NSC780203), nedisertib (M3814, NSC802822), bortezomib (NSC756655), venetoclax (NSC766270), doxorubicin (NSC123127), elimusertib (BAY189344, NSC800525), ceralasertib (AZD6738, NSC777638), TAK-243 (NSC785004), alisertib (NSC759677), etoposide (NSC141540), topotecan (NSC609699), eribulin (NSC707389), gemcitabine (NSC613327), carboplatin (NSC241240), cisplatin (NSC119875), and SN-38 (NSC673596) were obtained from the National Cancer Institute (NCI) Developmental Therapeutics Program Chemical Repository (32). The FDA-approved anticancer drug set is available from the Developmental Therapeutics Program at https://dtp.cancer.gov/organization/dscb/obtaining/available plates.htm. […] The stock solutions were prepared in dimethyl sulfoxide (DMSO, Sigma-Aldrich, St. Louis, MO, cat. D2650), except for the platinum compounds which were prepared in saline (Quality Biological, Gaithersburg, MD, cat. 114-055-101), at 800-fold the tested concentration and stored at -70 degrees C prior to their use. All drugs and investigational agents were tested over a range starting from a high concentration at or near the clinical Cmax and decreasing in half-log increments. If the clinical Cmax for an agent had not been determined, the highest concentration tested was 10 microM (Table 1).
# Cell Culture. All cells were maintained in an incubator at 37 degrees C and 5% CO2 with 95% humidity. The PDC lines were cultured according to standard operating procedures established by the NCI PDMR (https://pdmr.cancer.gov). Briefly, all PDCs were thawed and cultured in Matrigel-coated flasks prepared with a working solution of 1X Ham's F-12 nutrient mix, without supplementation (Invitrogen, Waltham, MA, cat. 11765054), 100 U/mL penicillin-streptomycin (Invitrogen, cat. 15140122), and 2.5% Matrigel (Corning Inc., Corning, NY, cat. 354248) for the first three passages. All PDCs were cultured in complete DMEM/F-12 media containing advanced DMEM/F-12 (Invitrogen, cat. 12634028), 4.9% defined fetal bovine serum, heat inactivated (HyClone Laboratories Inc., Logan, UT, cat. SH30070.03HI), 389 ng/mL hydrocortisone (Sigma-Aldrich, cat. H4001), 9.7 ng/mL human EGF recombinant protein (Invitrogen, cat. PHG0313), 23.4 microg/mL adenine (Sigma-Aldrich, cat. A2786), 97.3 U/mL penicillin-streptomycin (Invitrogen, cat. 15140122), 1.9 mM L-glutamine (Invitrogen, cat. 25030081), and 9.7 microM Y-27632 dihydrochloride (Tocris Bioscience, Bristol, United Kingdom, cat. 1254). The PDCs were cultured in complete DMEM/F12 media without 10 microM Y-27632 dihydrochloride for at least two passages prior to the screen. The established cell lines NCI-H1341 and […] were cultured in DMEM/F-12, HEPES (Invitrogen, cat. 11330032), 5% defined fetal bovine serum (HyClone Laboratories Inc., cat. SH30070.03), ITS premix universal culture supplement [insulin (5 microg/mL), transferrin (5 microg/mL), and selenious acid (5 ng/mL)] […]
# [1] = second compound 0.1 µM, first compound 0.0316 µM
# [2] = second compound 0.1 µM, first compound 0.1 µM
# [3] = second compound 0.1 µM, first compound 0.316 µM
# [4] = second compound 0.1 µM, first compound 1 µM
# [5] = second compound 0.1 µM, first compound 3.16 µM
# [6] = second compound 0.1 µM, first compound 10 µM
# [7] = second compound 0.316 µM, first compound 0.0316 µM
# [8] = second compound 0.316 µM, first compound 0.1 µM
# [9] = second compound 0.316 µM, first compound 0.316 µM
# [10] = second compound 0.316 µM, first compound 1 µM
# [11] = second compound 0.316 µM, first compound 3.16 µM
# [12] = second compound 0.316 µM, first compound 10 µM
# [13] = second compound 1 µM, first compound 0.0316 µM
# [14] = second compound 1 µM, first compound 0.1 µM
# [15] = second compound 1 µM, first compound 0.316 µM
# [16] = second compound 1 µM, first compound 1 µM
# [17] = second compound 1 µM, first compound 3.16 µM
# [18] = second compound 1 µM, first compound 10 µM
# [19] = second compound 3.16 µM, first compound 0.0316 µM
# [20] = second compound 3.16 µM, first compound 0.1 µM
# [21] = second compound 3.16 µM, first compound 0.316 µM
# [22] = second compound 3.16 µM, first compound 1 µM
# [23] = second compound 3.16 µM, first compound 3.16 µM
# [24] = second compound 3.16 µM, first compound 10 µM
# [25] = second compound 10 µM, first compound 0.0316 µM
# [26] = second compound 10 µM, first compound 0.1 µM
# [27] = second compound 10 µM, first compound 0.316 µM
# [28] = second compound 10 µM, first compound 1 µM
# [29] = second compound 10 µM, first compound 3.16 µM
# [30] = second compound 10 µM, first compound 10 µM
# 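Also: spheroids exposed to compounds for seven days before the viability read.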
# 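For viability, T/C in this document: luminescent signal used as a stand-in for viable cell amount; 100% = DMSO vehicle control wells.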
compound,measurement,setting,value
CCc1c2c(nc3ccc(O)cc13)-c1cc3c(c(=O)n1C2)COC(=O)[C@]3(O)CC + CC(CO)NC(=O)c1cc(-c2ccc(Cl)cc2)nn(-c2cnn(C)c2)c1=O,IC50,second compound 0.1 µM,< 0.949 nM
same,IC50,second compound 0.316 µM,< 0.949 nM
same,IC50,second compound 1 µM,< 0.949 nM
same,IC50,second compound 3.16 µM,< 0.949 nM
same,IC50,second compound 10 µM,< 0.949 nM
same,"viability, T/C","second compound 0.1 µM, first compound 0.000949 µM",38.7%
same,"viability, T/C","second compound 0.1 µM, first compound 0.003 µM",30.1%
same,"viability, T/C","second compound 0.1 µM, first compound 0.00949 µM",22.8%
same,"viability, T/C","second compound 0.1 µM, first compound 0.03 µM",16.7%
same,"viability, T/C","second compound 0.1 µM, first compound 0.0949 µM",10.3%
same,"viability, T/C","second compound 0.1 µM, first compound 0.3 µM",6.69%
same,"viability, T/C","second compound 0.316 µM, first compound 0.000949 µM",38.5%
same,"viability, T/C","second compound 0.316 µM, first compound 0.003 µM",27.1%
same,"viability, T/C","second compound 0.316 µM, first compound 0.00949 µM",21.9%
same,"viability, T/C","second compound 0.316 µM, first compound 0.03 µM",15.6%
same,"viability, T/C","second compound 0.316 µM, first compound 0.0949 µM",8.35%
same,"viability, T/C","second compound 0.316 µM, first compound 0.3 µM",5.97%
same,"viability, T/C","second compound 1 µM, first compound 0.000949 µM",37.8%
same,"viability, T/C","second compound 1 µM, first compound 0.003 µM",28.9%
same,"viability, T/C","second compound 1 µM, first compound 0.00949 µM",24.8%
same,"viability, T/C","second compound 1 µM, first compound 0.03 µM",16.4%
same,"viability, T/C","second compound 1 µM, first compound 0.0949 µM",8.38%
same,"viability, T/C","second compound 1 µM, first compound 0.3 µM",6.06%
same,"viability, T/C","second compound 3.16 µM, first compound 0.000949 µM",31.3%
same,"viability, T/C","second compound 3.16 µM, first compound 0.003 µM",25.4%
same,"viability, T/C","second compound 3.16 µM, first compound 0.00949 µM",24.5%
same,"viability, T/C","second compound 3.16 µM, first compound 0.03 µM",15.3%
same,"viability, T/C","second compound 3.16 µM, first compound 0.0949 µM",9.33%
same,"viability, T/C","second compound 3.16 µM, first compound 0.3 µM",6.42%
same,"viability, T/C","second compound 10 µM, first compound 0.000949 µM",27.5%
same,"viability, T/C","second compound 10 µM, first compound 0.003 µM",25.6%
same,"viability, T/C","second compound 10 µM, first compound 0.00949 µM",22.6%
same,"viability, T/C","second compound 10 µM, first compound 0.03 µM",15.4%
same,"viability, T/C","second compound 10 µM, first compound 0.0949 µM",8.39%
same,"viability, T/C","second compound 10 µM, first compound 0.3 µM",6.77%
Nc1ccn(C2OC(CO)C(O)C2(F)F)c(=O)n1 (stereo not given) + CC(CO)NC(=O)c1cc(-c2ccc(Cl)cc2)nn(-c2cnn(C)c2)c1=O,IC50,second compound 0.1 µM,< 31.6 nM
same,IC50,second compound 0.316 µM,< 31.6 nM
same,IC50,second compound 1 µM,< 31.6 nM
same,IC50,second compound 3.16 µM,< 31.6 nM
same,IC50,second compound 10 µM,< 31.6 nM
same,"viability, T/C",[1],5.01%
same,"viability, T/C",[2],4.63%
same,"viability, T/C",[3],4.51%
same,"viability, T/C",[4],3.71%
same,"viability, T/C",[5],4.16%
same,"viability, T/C",[6],4.38%
same,"viability, T/C",[7],4.41%
same,"viability, T/C",[8],4.36%
same,"viability, T/C",[9],4.44%
same,"viability, T/C",[10],4.03%
same,"viability, T/C",[11],4.3%
same,"viability, T/C",[12],4.3%
same,"viability, T/C",[13],5.04%
same,"viability, T/C",[14],4.97%
same,"viability, T/C",[15],4.99%
same,"viability, T/C",[16],4.1%
same,"viability, T/C",[17],5.44%
same,"viability, T/C",[18],4.54%
same,"viability, T/C",[19],5.3%
same,"viability, T/C",[20],4.96%
same,"viability, T/C",[21],5.78%
same,"viability, T/C",[22],5.41%
same,"viability, T/C",[23],5.04%
same,"viability, T/C",[24],4.36%
same,"viability, T/C",[25],5.62%
same,"viability, T/C",[26],5.79%
same,"viability, T/C",[27],5.42%
same,"viability, T/C",[28],5.48%
same,"viability, T/C",[29],5.6%
same,"viability, T/C",[30],4.96%
O=C(c1cc(Cc2n[nH]c(=O)c3ccccc23)ccc1F)N1CCN(C(=O)C2CC2)CC1 + CC(CO)NC(=O)c1cc(-c2ccc(Cl)cc2)nn(-c2cnn(C)c2)c1=O,IC50,second compound 0.1 µM,6180 nM
same,IC50,second compound 0.316 µM,6460 nM
same,IC50,second compound 1 µM,8510 nM
same,IC50,second compound 3.16 µM,7340 nM
same,IC50,second compound 10 µM,4640 nM
same,"viability, T/C",[1],99.2%
same,"viability, T/C",[2],108%
same,"viability, T/C",[3],102%
same,"viability, T/C",[4],90.3%
same,"viability, T/C",[5],69.9%
same,"viability, T/C",[6],36.1%
same,"viability, T/C",[7],96.3%
same,"viability, T/C",[8],97.2%
same,"viability, T/C",[9],100%
same,"viability, T/C",[10],88.5%
same,"viability, T/C",[11],74.9%
same,"viability, T/C",[12],35.1%
same,"viability, T/C",[13],104%
same,"viability, T/C",[14],95.3%
same,"viability, T/C",[15],98%
same,"viability, T/C",[16],93.7%
same,"viability, T/C",[17],71.6%
same,"viability, T/C",[18],46.5%
same,"viability, T/C",[19],98.1%
same,"viability, T/C",[20],93.2%
same,"viability, T/C",[21],87.9%
same,"viability, T/C",[22],90.9%
same,"viability, T/C",[23],71.9%
same,"viability, T/C",[24],41.7%
same,"viability, T/C",[25],80%
same,"viability, T/C",[26],86.3%
same,"viability, T/C",[27],88.5%
same,"viability, T/C",[28],69.2%
same,"viability, T/C",[29],58.4%
same,"viability, T/C",[30],36.5%
